Assay results as given in patent US5958683A, “Screening method using the RZR receptor family” (priority 1994, dated 1999).

Assays:
RZR/RORα = biological target: T1, RZR/RORα (Homo sapiens, UniProt P35398); experiment: CAT reporter assay for ligand induced activation, Drosophila SL-3 cells transfected with RZR/RORα; type: cell-based; conditions: when applied in the nanomolar range
T1 construct: RZRα is likely the RORalpha4 splice form
T1 sequence (P35398 1-523): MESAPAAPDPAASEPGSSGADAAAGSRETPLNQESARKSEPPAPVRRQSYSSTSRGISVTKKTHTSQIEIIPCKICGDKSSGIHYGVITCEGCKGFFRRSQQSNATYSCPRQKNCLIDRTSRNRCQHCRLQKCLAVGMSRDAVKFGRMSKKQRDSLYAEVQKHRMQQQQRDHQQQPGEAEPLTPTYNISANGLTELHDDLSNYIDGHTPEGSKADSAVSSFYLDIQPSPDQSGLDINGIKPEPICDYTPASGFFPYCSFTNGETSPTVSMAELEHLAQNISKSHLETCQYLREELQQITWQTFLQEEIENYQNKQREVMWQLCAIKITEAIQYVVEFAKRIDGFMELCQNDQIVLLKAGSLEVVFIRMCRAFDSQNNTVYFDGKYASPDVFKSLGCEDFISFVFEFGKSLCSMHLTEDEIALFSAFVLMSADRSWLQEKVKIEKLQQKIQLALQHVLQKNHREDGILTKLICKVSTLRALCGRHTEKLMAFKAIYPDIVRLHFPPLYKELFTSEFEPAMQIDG
Description: After dilution with 0.9 ml Schneider's medium, the liposomes are added to the cells.
The values given in table 1 represent the mean activation of CAT activities measured in three independent experiments, compared to the addition of pure solvent (ethanol).

adjuvant arthritis = conditions: known to be active or inactive; cited from earlier work

affinity to the RZR/RORα receptor (RZR/RORα)	Compound	activity in adjuvant arthritis (adjuvant arthritis)
high affinity	COc1ccc2[nH]cc(CCNC(C)=O)c2c1 [melatonin]	
	CC1=C(/C=C/C(C)=C/C=C/C(C)=C/C(=O)O)C(C)(C)CCC1 [all trans RA, retinoic acid]	-
	C=C1/C(=C\C=C2/CCC[C@]3(C)[C@@H]([C@H](C)CCCC(C)(C)O)CC[C@@H]23)C[C@@H](O)C[C@@H]1O [vitamin D, 1,25-dihydroxyvitaminD3]	-
	CC1=C(/C=C/C(C)=C/C=C/C(C)=C/C(=O)O)C(C)(C)CCC1 [9-cis RA, retinoic acid]	-
